We go through 11 molecules from ChEMBL document CHEMBL1909046, “DrugMatrix in vitro pharmacology data”.

The target in one experiment is D(1A) dopamine receptor (Homo sapiens, UniProt P21728). Put plainly: DRUGMATRIX: Dopamine D1 radioligand binding (ligand: [3H] SCH-23390). Format: cell membranes, CHO, Membrane. The conditions noted are these: cho; Not Active = under 50% inhibition at 10 µM.
A further experiment deals with Melanocortin receptor 4 (Homo sapiens, UniProt P32245). Format: cell membranes, Membrane. The conditions noted are these: hek293.
Melanocortin receptor 4, sequence (P32245 whole entry): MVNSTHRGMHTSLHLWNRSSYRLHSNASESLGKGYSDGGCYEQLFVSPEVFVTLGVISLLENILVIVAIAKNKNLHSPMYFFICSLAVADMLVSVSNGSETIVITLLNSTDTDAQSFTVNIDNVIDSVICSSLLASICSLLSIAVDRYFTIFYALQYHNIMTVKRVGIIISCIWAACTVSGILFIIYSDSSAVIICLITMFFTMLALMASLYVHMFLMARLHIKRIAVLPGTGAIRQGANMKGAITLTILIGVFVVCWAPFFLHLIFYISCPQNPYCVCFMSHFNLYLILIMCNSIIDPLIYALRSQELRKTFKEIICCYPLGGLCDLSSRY
For experiment [1], the target named is Sodium-dependent dopamine transporter (Homo sapiens, UniProt Q01959). Description: DRUGMATRIX: Dopamine Transporter radioligand binding (ligand: [125I] RTI-55). Format: cell membranes, CHO-K1, Membrane. The conditions noted are these: Not Active = under 50% inhibition at 10 µM; for Ki: read-out: Ki.
Sodium-dependent dopamine transporter, sequence (Q01959 whole entry): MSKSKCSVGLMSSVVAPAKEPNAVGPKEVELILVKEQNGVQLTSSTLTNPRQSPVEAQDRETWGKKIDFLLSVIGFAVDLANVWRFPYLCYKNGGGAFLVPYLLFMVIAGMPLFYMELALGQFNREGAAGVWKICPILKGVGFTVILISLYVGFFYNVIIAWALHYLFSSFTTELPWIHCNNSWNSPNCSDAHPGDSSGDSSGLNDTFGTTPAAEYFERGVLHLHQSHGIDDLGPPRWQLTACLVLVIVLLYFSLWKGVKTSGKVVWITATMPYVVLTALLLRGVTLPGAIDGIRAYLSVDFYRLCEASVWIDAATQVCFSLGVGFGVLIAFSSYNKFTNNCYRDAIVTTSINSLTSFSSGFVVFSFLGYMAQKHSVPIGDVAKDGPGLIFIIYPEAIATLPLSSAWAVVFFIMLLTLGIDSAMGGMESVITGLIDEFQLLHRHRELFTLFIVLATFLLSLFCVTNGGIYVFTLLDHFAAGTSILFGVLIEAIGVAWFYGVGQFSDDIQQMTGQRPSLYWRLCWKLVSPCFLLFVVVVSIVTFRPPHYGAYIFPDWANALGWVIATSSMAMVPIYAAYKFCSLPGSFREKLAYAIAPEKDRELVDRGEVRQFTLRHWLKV
The next experiment addresses T1, Leukotriene C4 synthase (Cavia porcellus, UniProt A6XA80).
T1 sequence (A6XA80 whole entry): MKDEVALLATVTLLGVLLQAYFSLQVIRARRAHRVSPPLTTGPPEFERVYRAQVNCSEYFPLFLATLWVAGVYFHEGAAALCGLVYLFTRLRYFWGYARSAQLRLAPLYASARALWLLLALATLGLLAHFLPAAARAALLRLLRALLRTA
Format: tissue-based, Lung.

Experiment [2] concerns the target Mitogen-activated protein kinase 3 (Homo sapiens, UniProt P27361). Put plainly: DRUGMATRIX: Protein Serine/Threonine Kinase, ERK1 enzyme inhibition (substrate: Myelin Basic Protein). Conditions: Not Active = under 50% inhibition at 10 µM. Also on record: species or system Escherichia coli.
For a further experiment, the target named is T2, Endothelin-1 receptor (Homo sapiens, UniProt P25101). Note: in other assays of this panel Not Active means under 50% inhibition at 10 µM.
T2 sequence (P25101 whole entry): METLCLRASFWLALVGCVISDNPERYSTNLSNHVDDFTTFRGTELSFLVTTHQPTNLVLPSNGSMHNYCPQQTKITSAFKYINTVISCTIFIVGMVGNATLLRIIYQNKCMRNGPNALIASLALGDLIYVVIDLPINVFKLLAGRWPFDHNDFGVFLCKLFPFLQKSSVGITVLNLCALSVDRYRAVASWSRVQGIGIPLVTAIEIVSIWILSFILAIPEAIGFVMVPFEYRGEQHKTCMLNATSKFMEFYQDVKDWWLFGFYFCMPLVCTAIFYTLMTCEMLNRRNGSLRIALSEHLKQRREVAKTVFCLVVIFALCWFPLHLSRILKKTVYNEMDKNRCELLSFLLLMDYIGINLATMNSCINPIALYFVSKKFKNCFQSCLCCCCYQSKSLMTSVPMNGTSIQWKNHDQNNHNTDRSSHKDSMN
Format: cell membranes, Membrane. The conditions noted are these: cho-k1.

D(1A) dopamine receptor, sequence (P21728 whole entry): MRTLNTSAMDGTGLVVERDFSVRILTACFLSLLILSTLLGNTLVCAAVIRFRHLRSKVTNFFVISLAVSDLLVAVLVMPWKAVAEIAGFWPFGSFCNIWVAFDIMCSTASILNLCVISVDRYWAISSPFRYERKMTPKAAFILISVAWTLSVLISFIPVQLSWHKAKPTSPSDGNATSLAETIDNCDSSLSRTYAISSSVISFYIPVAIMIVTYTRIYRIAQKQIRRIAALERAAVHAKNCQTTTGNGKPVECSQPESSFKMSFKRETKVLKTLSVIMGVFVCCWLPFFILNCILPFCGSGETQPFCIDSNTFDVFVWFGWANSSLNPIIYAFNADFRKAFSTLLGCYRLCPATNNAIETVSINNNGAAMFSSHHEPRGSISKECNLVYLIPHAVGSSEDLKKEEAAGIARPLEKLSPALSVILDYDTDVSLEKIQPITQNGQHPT
Mitogen-activated protein kinase 3, sequence (P27361 whole entry): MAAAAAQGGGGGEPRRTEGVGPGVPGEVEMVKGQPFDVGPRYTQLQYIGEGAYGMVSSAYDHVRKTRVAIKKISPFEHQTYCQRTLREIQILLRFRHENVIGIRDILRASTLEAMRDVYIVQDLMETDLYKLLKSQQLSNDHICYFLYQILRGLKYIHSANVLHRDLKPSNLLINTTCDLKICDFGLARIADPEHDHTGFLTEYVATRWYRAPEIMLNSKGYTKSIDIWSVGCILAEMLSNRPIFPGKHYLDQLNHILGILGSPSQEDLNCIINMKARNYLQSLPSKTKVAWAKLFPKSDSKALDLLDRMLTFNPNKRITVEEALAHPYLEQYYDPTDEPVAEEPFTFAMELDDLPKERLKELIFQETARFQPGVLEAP

Usually IC50 stands for the point on the concentration scale where inhibition reaches its midpoint. `CCOc1nc2cccc(C(=O)O)c2n1Cc1ccc(-c2ccccc2-c2nnn[nH]2)cc1`: the half-maximal inhibitory concentration (IC50) entry (on D(1A) dopamine receptor; on Melanocortin receptor 4; in experiment [1] (cho-k1); at Leukotriene C4 synthase; in experiment [2]; against Endothelin-1 receptor) was “Not Active” each time.

As to `O=C(O)CCCc1cccs1`, the IC50 entry (at D(1A) dopamine receptor; on Melanocortin receptor 4; in experiment [1] (cho-k1); at Leukotriene C4 synthase; in experiment [2]; on Endothelin-1 receptor) was “Not Active” each time.

On to `COc1ccccc1N`, for which the IC50 entry (on D(1A) dopamine receptor; at Melanocortin receptor 4; in experiment [1] (cho-k1); on Leukotriene C4 synthase; in experiment [2]; against Endothelin-1 receptor) was “Not Active” throughout.

For `O=C(c1ccccc1F)N1CCC(Cc2ccccc2)CC1`, the IC50 result (on D(1A) dopamine receptor; at Melanocortin receptor 4; in experiment [1] (cho-k1); on Leukotriene C4 synthase; in experiment [2]; on Endothelin-1 receptor) was “Not Active” throughout.

Broadly, the Ki is the equilibrium dissociation constant of an inhibitor or competing ligand from its target. `Cc1c(O)cccc1C(=O)N[C@@H](CSc1ccccc1)[C@H](O)CN1C[C@H]2CCCC[C@H]2C[C@H]1C(=O)NC(C)(C)C`: the half-maximal inhibitory concentration (IC50) entry was “Not Active” against Melanocortin receptor 4; 15.5 µM in experiment [1] (read-out: IC50); “Not Active” on Leukotriene C4 synthase; 22.5 µM in experiment [2] (read-out: IC50); “Not Active” on Endothelin-1 receptor. In addition, the Ki in experiment [1] was 12.3 µM.

In the case of `CC(O)COC[C@H]1O[C@@H]2O[C@H]3[C@H](O)[C@@H](O)[C@@H](O[C@H]4[C@H](O)[C@@H](O)[C@@H](O[C@H]5[C@H](O)[C@@H](O)[C@@H](O[C@H]6[C@H](O)[C@@H](O)[C@@H](O[C@H]7[C@H](O)[C@@H](O)[C@@H](O[C@H]8[C@H](O)[C@@H](O)[C@@H](O[C@H]1[C@H](O)[C@H]2O)O[C@@H]8COCC(C)O)O[C@@H]7COCC(C)O)O[C@@H]6COCC(C)O)O[C@@H]5COCC(C)O)O[C@@H]4COCC(C)O)O[C@@H]3COCC(C)O` (stereo partly drawn) [2-HYDROXYPROPYL-BETA-CYCLODEXTRIN], the IC50 result is “Not Active” at D(1A) dopamine receptor; “Not Active” against Melanocortin receptor 4; 1.69 µM in experiment [1] (read-out: IC50); “Not Active” at Leukotriene C4 synthase; “Not Active” in experiment [2]; “Not Active” against Endothelin-1 receptor. The Ki in experiment [1] came out at 1.34 µM.

In the case of `NC(=O)c1cccc(N)c1` [3-AMINOBENZAMIDE], the IC50 entry (on D(1A) dopamine receptor; on Melanocortin receptor 4; in experiment [1] (cho-k1); against Leukotriene C4 synthase; in experiment [2]; at Endothelin-1 receptor) was “Not Active” throughout.

Consider `C[C@H]1O[C@H](O[C@H]2[C@H](O)[C@@H](O)[C@@H](O[C@H]3[C@H](O)[C@@H](O)C(O)O[C@@H]3CO)O[C@@H]2CO)[C@H](O)[C@@H](O)[C@@H]1N[C@H]1C=C(CO)[C@@H](O)[C@H](O)[C@H]1O` (stereo not given in full) [ACARBOSE], for which the IC50 result (on D(1A) dopamine receptor; against Melanocortin receptor 4; in experiment [1] (cho-k1); on Leukotriene C4 synthase; in experiment [2]; against Endothelin-1 receptor) was “Not Active” in each case.

`CC[C@H]1[C@@H]2C[C@H]3[C@@H]4N(C)c5ccccc5[C@]45C[C@@H]([C@@H]2[C@H]5O)N3[C@@H]1O` [AJMALINE]: the IC50 entry (on D(1A) dopamine receptor; at Melanocortin receptor 4; in experiment [1] (cho-k1); at Leukotriene C4 synthase; in experiment [2]; against Endothelin-1 receptor) was “Not Active” each time.

Take `CO/N=C(\C(=O)N[C@@H]1C(=O)N2C(C(=O)O)=C(COC(C)=O)CS[C@H]12)c1csc(N)n1` [CEFOTAXIME]: the half-inhibitory concentration (IC50) entry (on D(1A) dopamine receptor; at Melanocortin receptor 4; in experiment [1] (cho-k1); on Leukotriene C4 synthase; against Endothelin-1 receptor) was “Not Active” each time.

Consider `N=C(N)c1ccc(OCCCCCOc2ccc(C(=N)N)cc2)cc1` [PENTAMIDINE], for which the IC50 result (on D(1A) dopamine receptor; against Melanocortin receptor 4; at Leukotriene C4 synthase; in experiment [2]; against Endothelin-1 receptor) was “Not Active” in each case.
